# Laboratory results from US7625841B2, “Substituted thiene-3-ylsulphonylamino(thio)carbonyltriazolin(ethi)ones” (Bayer CropScience AG, priority 2001, dated 2009).
# Tests used:
# Datura = test: Post-emergence test/greenhouse; type: in vivo; conditions: greenhouse, application rate 15 gai/ha, rated after three weeks, 0%=no effect, 100%=total destruction
# Summary of the method: (§1)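 Post-emergence greenhouse spray. Formulation: 1 pt cpd, 5 pts acetone, 1 pt alkylaryl polyglycol ether emulsifier, water dilution; spray volume 1000 l/ha; plants 5-15 cm. Rating at 3 wk, % damage vs untreated (0-100%).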
# Echinochloa = test: Post-emergence test/greenhouse; type: in vivo; conditions: greenhouse, application rate 15 gai/ha, rated after three weeks, 0%=no effect, 100%=total destruction
# Summary of the method: as §1
# Lolium [1] = test: Post-emergence test/greenhouse; type: in vivo; conditions: greenhouse, application rate 15 gai/ha, rated after three weeks, 0%=no effect, 100%=total destruction
# Summary of the method: as §1
# Polygonum = test: Post-emergence test/greenhouse; type: in vivo; conditions: greenhouse, application rate 15 gai/ha, rated after three weeks, 0%=no effect, 100%=total destruction
# Summary of the method: as §1
# Viola = test: Post-emergence test/greenhouse; type: in vivo; conditions: greenhouse, application rate 15 gai/ha, rated after three weeks, 0%=no effect, 100%=total destruction
# Summary of the method: as §1
# Xanthium [2] = test: Post-emergence test/greenhouse; type: in vivo; conditions: greenhouse, application rate 15 gai/ha, rated after three weeks, 0%=no effect, 100%=total destruction
# Summary of the method: as §1
# maize [3] = test: Post-emergence test/greenhouse; type: in vivo; conditions: greenhouse, application rate 15 gai/ha, rated after three weeks, 0%=no effect, 100%=total destruction
# Summary of the method: as §1
# wheat [4] = test: Post-emergence test/greenhouse; type: in vivo; conditions: greenhouse, application rate 15 gai/ha, rated after three weeks, 0%=no effect, 100%=total destruction
# Summary of the method: as §1
# Amaranthus = test: Pre-emergence test/greenhouse; type: in vivo; conditions: greenhouse, application rate 15 gai/ha, rated after three weeks, 0%=no effect, 100%=total destruction
# Summary of the method: (§2)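 Read-out is percent damage relative to untreated controls three weeks after treatment, where 0% means no effect and 100% total destruction. Treatment was a spray onto soil one day after seeds were sown, applied in 1000 litres of water per hectare.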
# Bromus = test: Pre-emergence test/greenhouse; type: in vivo; conditions: greenhouse, application rate 15 gai/ha, rated after three weeks, 0%=no effect, 100%=total destruction
# Summary of the method: as §2
# Lolium [5] = test: Pre-emergence test/greenhouse; type: in vivo; conditions: greenhouse, application rate 15 gai/ha, rated after three weeks, 0%=no effect, 100%=total destruction
# Summary of the method: as §2
# Matricaria = test: Pre-emergence test/greenhouse; type: in vivo; conditions: Matricaria, 504 h, greenhouse, application rate 15 gai/ha, rated after three weeks, 0%=no effect, 100%=total destruction, read-out: degree of damage to the plants, Matricaria
# Summary of the method: as §2
# Solanum = test: Pre-emergence test/greenhouse; type: in vivo; conditions: greenhouse, application rate 15 gai/ha, rated after three weeks, 0%=no effect, 100%=total destruction
# Summary of the method: as §2
# Stellaria = test: Pre-emergence test/greenhouse; type: in vivo; conditions: greenhouse, application rate 15 gai/ha, rated after three weeks, 0%=no effect, 100%=total destruction
# Summary of the method: as §2
# Xanthium [6] = test: Pre-emergence test/greenhouse; type: in vivo; conditions: Xanthium, 504 h, greenhouse, application rate 15 gai/ha, rated after three weeks, 0%=no effect, 100%=total destruction, read-out: degree of damage to the plants, Xanthium
# Summary of the method: as §2
# maize [7] = test: Pre-emergence test/greenhouse; type: in vivo; conditions: Zea mays, 504 h, greenhouse, application rate 15 gai/ha, rated after three weeks, 0%=no effect, 100%=total destruction, read-out: degree of damage to the plants, maize
# Summary of the method: as §2
# wheat [8] = test: Pre-emergence test/greenhouse; type: in vivo; conditions: Triticum aestivum, 504 h, greenhouse, application rate 15 gai/ha, rated after three weeks, 0%=no effect, 100%=total destruction, read-out: degree of damage to the plants, wheat
# Summary of the method: as §2
# weeds [9] = test: Post-emergence test, summary for weeds; type: in vivo
# Summary of the method: as §1
# [10] = test system: crop plants such as, for example, maize, oilseed rape and wheat; test: Post-emergence test, summary for crop plants; type: in vivo
# Summary of the method: as §1
# weeds [11] = test: Pre-emergence test, summary for weeds; type: in vivo
# Summary of the method: as §2
# [12] = test system: crop plants, such as, for example, maize, soyabean and wheat; test: Pre-emergence test, summary for crop plants; type: in vivo
# Summary of the method: as §2
# Alopecurus = test: Post-emergence test/greenhouse; type: in vivo; conditions: greenhouse, application rate 15 gai/ha, rated after three weeks, 0%=no effect, 100%=total destruction
# Summary of the method: as §1
# Chenopodium = test: Post-emergence test/greenhouse; type: in vivo; conditions: greenhouse, application rate 15 gai/ha, rated after three weeks, 0%=no effect, 100%=total destruction
# Summary of the method: as §1
# rape = test: Post-emergence test/greenhouse; type: in vivo; conditions: greenhouse, application rate 15 gai/ha, rated after three weeks, 0%=no effect, 100%=total destruction
# Summary of the method: as §1
# Avena fatua = test: Pre-emergence test/greenhouse; type: in vivo; conditions: greenhouse, application rate 15 gai/ha, rated after three weeks, 0%=no effect, 100%=total destruction
# Summary of the method: as §2
# Galium = test: Pre-emergence test/greenhouse; type: in vivo; conditions: greenhouse, application rate 15 gai/ha, rated after three weeks, 0%=no effect, 100%=total destruction
# Summary of the method: as §2
# Setaria = test: Pre-emergence test/greenhouse; type: in vivo; conditions: greenhouse, application rate 15 gai/ha, rated after three weeks, 0%=no effect, 100%=total destruction
# Summary of the method: as §2
smiles,measurement,setting,value
"CCOC(=O)c1csc(C)c1S(=O)(=O)NC(=O)n1nc(OC)n(C)c1=O [Example 1, ethyl 4-[[[(3-methoxy-4-methyl-5-oxo-1H-1,2,4-triazol-1-yl)carbonyl]amino]sulfonyl]-5-methyl-3-thiophenecarboxylate]","degree of damage to the plants, Datura",Datura,95%
same,"degree of damage to the plants, Echinochloa",Echinochloa,90%
same,"degree of damage to the plants, Lolium",Lolium [1],90%
same,"degree of damage to the plants, Polygonum",Polygonum,95%
same,"degree of damage to the plants, Viola",Viola,95%
same,"degree of damage to the plants, Xanthium",Xanthium [2],95%
same,"degree of damage to the plants, maize",maize [3],0%
same,"degree of damage to the plants, wheat",wheat [4],0%
same,"degree of damage to the plants, Amaranthus",Amaranthus,100%
same,"degree of damage to the plants, Bromus",Bromus,95%
same,pest or weed control at 15 g/ha,"Lolium [5]; Lolium, 504 h, read-out: degree of damage to the plants, Lolium",90%
same,pest or weed control at 15 g/ha,Matricaria,100%
same,"degree of damage to the plants, Solanum",Solanum,100%
same,pest or weed control at 15 g/ha,"Stellaria; Stellaria, 504 h, read-out: degree of damage to the plants, Stellaria",100%
same,pest or weed control at 15 g/ha,Xanthium [6],95%
same,plant injury at 15 g/ha,maize [7],0%
same,plant injury at 15 g/ha,wheat [8],0%
same,activity against weeds compared with the known compounds (A) and (B),weeds [9],considerably stronger activity against weeds
same,compatibility with crop plants compared with the known compounds (A) and (B),[10],substantially better compatibility with crop plants
same,activity against weeds compared with the known compounds (A) to (G),weeds [11],considerably stronger activity against weeds
same,tolerance by crop plants,[12],tolerated well by crop plants
same,melting point,,176 °C
CCCc1nn(C(=O)NS(=O)(=O)c2c(C(=O)OC)csc2C)c(=O)n1OC [Example 42],"degree of damage to the plants, Alopecurus",Alopecurus,90%
same,"degree of damage to the plants, Chenopodium",Chenopodium,95%
same,"degree of damage to the plants, Echinochloa",Echinochloa,90%
same,"degree of damage to the plants, Lolium",Lolium [1],90%
same,"degree of damage to the plants, rape",rape,0%
same,"degree of damage to the plants, Amaranthus",Amaranthus,100%
same,"degree of damage to the plants, Avena fatua",Avena fatua,90%
same,"degree of damage to the plants, Bromus",Bromus,95%
same,"degree of damage to the plants, Galium",Galium,100%
same,"degree of damage to the plants, Lolium",Lolium [5],95%
same,"degree of damage to the plants, Setaria",Setaria,95%
same,"degree of damage to the plants, Stellaria",Stellaria,100%
same,activity against weeds compared with the known compounds (A) and (B),weeds [9],considerably stronger activity against weeds
same,compatibility with crop plants compared with the known compounds (A) and (B),[10],substantially better compatibility with crop plants
same,activity against weeds compared with the known compounds (A) to (G),weeds [11],considerably stronger activity against weeds
same,tolerance by crop plants,[12],tolerated well by crop plants
